Reference: ChEMBL document CHEMBL4219273, “Discovery of a novel olefin derivative as a highly potent and selective acetyl-CoA carboxylase 2 inhibitor with in vivo efficacy” (Bioorg Med Chem Lett, 2018)

System: not listed separately
Assay: Total clearance in C57BL/6 mouse at 0.2 mg/kg, iv
Format: ADME, organism-based
Details: in vivo

clearance	Structure (SMILES)
0.354 mL/min/kg	CCOc1nc2ccc(Oc3ccc(/C=C/[C@H](C)NC(C)=O)cn3)c(Cl)c2s1

Target: Acetyl-CoA carboxylase 1 (Homo sapiens, UniProt Q13085)
Assay: Inhibition of recombinant human ACC1 assessed as reduction in conversion of acetyl-CoA to malonyl-CoA incubated for 1 to 3 hrs with substrate by MALDI-TOF-MS analysis
Details: not given

Structure (SMILES)	IC50
CC(=O)N[C@@H](C)/C=C/c1cnc(Oc2ccc(OCC3CC3)cc2Cl)nc1	> 100 µM
CC(=O)N[C@@H](C)/C=C/c1ccc(Oc2cc3sc(C)nc3cc2Cl)nc1	52.1 µM
CCOc1nc2ccc(Oc3ccc(/C=C/[C@H](C)NC(C)=O)cn3)c(Cl)c2s1	1.95 µM

Further lines, results first:

IC50	Structure (SMILES)
> 100 µM	CC(=O)N[C@@H](C)/C=C/c1ccc(Oc2ccc(OCCF)cc2Cl)nc1
0.964 µM	CC(=O)N[C@@H](C)/C=C/c1ccc(Oc2ccc(OCC3CC3)cc2Cl)nc1

System: Mus musculus
Assay: Suppression of malonyl-CoA levels in C57BL/6 mouse skeletal muscle at 2.5 mg/kg, po measured at 6 hrs post dose by LC-MS analysis relative to control
Format: functional
Details: not given

Structure (SMILES)	Activity
CCOc1nc2ccc(Oc3ccc(/C=C/[C@H](C)NC(C)=O)cn3)c(Cl)c2s1	41%

Species: Homo sapiens
Assay: Selectivity ratio of IC50 for recombinant human ACC1 to IC50 for recombinant human ACC2
Details: not given

Structure (SMILES)	Ratio IC50
CC(=O)N[C@@H](C)/C=C/c1cnc(Oc2ccc(OCC3CC3)cc2Cl)nc1	> 2080
CC(=O)N[C@@H](C)/C=C/c1ccc(Oc2cc3sc(C)nc3cc2Cl)nc1	110
CCOc1nc2ccc(Oc3ccc(/C=C/[C@H](C)NC(C)=O)cn3)c(Cl)c2s1	1030

Further lines, results first:

Ratio IC50	Structure (SMILES)
> 537	CC(=O)N[C@@H](C)/C=C/c1ccc(Oc2ccc(OCCF)cc2Cl)nc1
140	CC(=O)N[C@@H](C)/C=C/c1ccc(Oc2ccc(OCC3CC3)cc2Cl)nc1

System: Rattus norvegicus
Assay: Toxicity in rat assessed as abnormal clinical signs at 50 mg/kg/day, po administered for 4 consecutive days
Format: organism-based
Details: in vivo

Structure (SMILES)	Activity
CCOc1nc2ccc(Oc3ccc(/C=C/[C@H](C)NC(C)=O)cn3)c(Cl)c2s1	Non-Toxic

System: not listed separately
Assay: Oral bioavailability in C57BL/6 mouse at 2.5 mg/kg
Format: ADME, organism-based
Details: in vivo

bioavailability	Structure (SMILES)
83.5%	CCOc1nc2ccc(Oc3ccc(/C=C/[C@H](C)NC(C)=O)cn3)c(Cl)c2s1

System: not listed separately
Assay: Cmax in C57BL/6 mouse at 2.5 mg/kg, po
Format: ADME, organism-based
Parameters: dose 2.5 mg/kg, route oral
Details: in vivo

Cmax	Structure (SMILES)
4230 ng/mL	CCOc1nc2ccc(Oc3ccc(/C=C/[C@H](C)NC(C)=O)cn3)c(Cl)c2s1

System: not listed separately
Assay: Metabolic stability in human liver microsomes assessed as parent compound remaining after 30 mins
Format: ADME, microsome
Details: read-out: Stability

remaining at 0.5 h	Structure (SMILES)
94%	CC(=O)N[C@@H](C)/C=C/c1ccc(Oc2cc3sc(C)nc3cc2Cl)nc1
91%	CCOc1nc2ccc(Oc3ccc(/C=C/[C@H](C)NC(C)=O)cn3)c(Cl)c2s1

Target: Cytochrome P450 3A4 (Homo sapiens, UniProt P08684)
Sequence (P08684 whole entry): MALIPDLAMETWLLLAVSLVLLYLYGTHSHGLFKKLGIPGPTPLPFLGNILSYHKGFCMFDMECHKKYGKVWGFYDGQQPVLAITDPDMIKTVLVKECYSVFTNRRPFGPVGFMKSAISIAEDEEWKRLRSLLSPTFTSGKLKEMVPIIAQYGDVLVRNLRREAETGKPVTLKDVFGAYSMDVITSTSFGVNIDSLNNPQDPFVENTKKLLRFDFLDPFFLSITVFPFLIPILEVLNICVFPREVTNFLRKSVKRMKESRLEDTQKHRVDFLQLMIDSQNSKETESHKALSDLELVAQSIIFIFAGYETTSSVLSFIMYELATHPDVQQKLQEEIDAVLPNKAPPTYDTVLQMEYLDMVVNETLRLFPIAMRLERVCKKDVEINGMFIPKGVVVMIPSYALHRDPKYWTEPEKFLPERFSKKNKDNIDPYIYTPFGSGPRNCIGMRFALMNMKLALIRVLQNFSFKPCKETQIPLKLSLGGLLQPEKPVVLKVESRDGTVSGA
Assay: Inhibition of CYP3A4 (unknown origin)
Format: ADME
Details: not given

Structure (SMILES)	IC50
CC(=O)N[C@@H](C)/C=C/c1cnc(Oc2ccc(OCC3CC3)cc2Cl)nc1	> 20 µM
CC(=O)N[C@@H](C)/C=C/c1ccc(Oc2cc3sc(C)nc3cc2Cl)nc1	> 20 µM
CCOc1nc2ccc(Oc3ccc(/C=C/[C@H](C)NC(C)=O)cn3)c(Cl)c2s1	> 20 µM

Second part, the compound after the results:

IC50	Structure (SMILES)
> 20 µM	CC(=O)N[C@@H](C)/C=C/c1ccc(Oc2ccc(OCCF)cc2Cl)nc1
16 µM	CC(=O)N[C@@H](C)/C=C/c1ccc(Oc2ccc(OCC3CC3)cc2Cl)nc1

Target: Acetyl-CoA carboxylase 2 (Homo sapiens, UniProt O00763)
Sequence (O00763 whole entry): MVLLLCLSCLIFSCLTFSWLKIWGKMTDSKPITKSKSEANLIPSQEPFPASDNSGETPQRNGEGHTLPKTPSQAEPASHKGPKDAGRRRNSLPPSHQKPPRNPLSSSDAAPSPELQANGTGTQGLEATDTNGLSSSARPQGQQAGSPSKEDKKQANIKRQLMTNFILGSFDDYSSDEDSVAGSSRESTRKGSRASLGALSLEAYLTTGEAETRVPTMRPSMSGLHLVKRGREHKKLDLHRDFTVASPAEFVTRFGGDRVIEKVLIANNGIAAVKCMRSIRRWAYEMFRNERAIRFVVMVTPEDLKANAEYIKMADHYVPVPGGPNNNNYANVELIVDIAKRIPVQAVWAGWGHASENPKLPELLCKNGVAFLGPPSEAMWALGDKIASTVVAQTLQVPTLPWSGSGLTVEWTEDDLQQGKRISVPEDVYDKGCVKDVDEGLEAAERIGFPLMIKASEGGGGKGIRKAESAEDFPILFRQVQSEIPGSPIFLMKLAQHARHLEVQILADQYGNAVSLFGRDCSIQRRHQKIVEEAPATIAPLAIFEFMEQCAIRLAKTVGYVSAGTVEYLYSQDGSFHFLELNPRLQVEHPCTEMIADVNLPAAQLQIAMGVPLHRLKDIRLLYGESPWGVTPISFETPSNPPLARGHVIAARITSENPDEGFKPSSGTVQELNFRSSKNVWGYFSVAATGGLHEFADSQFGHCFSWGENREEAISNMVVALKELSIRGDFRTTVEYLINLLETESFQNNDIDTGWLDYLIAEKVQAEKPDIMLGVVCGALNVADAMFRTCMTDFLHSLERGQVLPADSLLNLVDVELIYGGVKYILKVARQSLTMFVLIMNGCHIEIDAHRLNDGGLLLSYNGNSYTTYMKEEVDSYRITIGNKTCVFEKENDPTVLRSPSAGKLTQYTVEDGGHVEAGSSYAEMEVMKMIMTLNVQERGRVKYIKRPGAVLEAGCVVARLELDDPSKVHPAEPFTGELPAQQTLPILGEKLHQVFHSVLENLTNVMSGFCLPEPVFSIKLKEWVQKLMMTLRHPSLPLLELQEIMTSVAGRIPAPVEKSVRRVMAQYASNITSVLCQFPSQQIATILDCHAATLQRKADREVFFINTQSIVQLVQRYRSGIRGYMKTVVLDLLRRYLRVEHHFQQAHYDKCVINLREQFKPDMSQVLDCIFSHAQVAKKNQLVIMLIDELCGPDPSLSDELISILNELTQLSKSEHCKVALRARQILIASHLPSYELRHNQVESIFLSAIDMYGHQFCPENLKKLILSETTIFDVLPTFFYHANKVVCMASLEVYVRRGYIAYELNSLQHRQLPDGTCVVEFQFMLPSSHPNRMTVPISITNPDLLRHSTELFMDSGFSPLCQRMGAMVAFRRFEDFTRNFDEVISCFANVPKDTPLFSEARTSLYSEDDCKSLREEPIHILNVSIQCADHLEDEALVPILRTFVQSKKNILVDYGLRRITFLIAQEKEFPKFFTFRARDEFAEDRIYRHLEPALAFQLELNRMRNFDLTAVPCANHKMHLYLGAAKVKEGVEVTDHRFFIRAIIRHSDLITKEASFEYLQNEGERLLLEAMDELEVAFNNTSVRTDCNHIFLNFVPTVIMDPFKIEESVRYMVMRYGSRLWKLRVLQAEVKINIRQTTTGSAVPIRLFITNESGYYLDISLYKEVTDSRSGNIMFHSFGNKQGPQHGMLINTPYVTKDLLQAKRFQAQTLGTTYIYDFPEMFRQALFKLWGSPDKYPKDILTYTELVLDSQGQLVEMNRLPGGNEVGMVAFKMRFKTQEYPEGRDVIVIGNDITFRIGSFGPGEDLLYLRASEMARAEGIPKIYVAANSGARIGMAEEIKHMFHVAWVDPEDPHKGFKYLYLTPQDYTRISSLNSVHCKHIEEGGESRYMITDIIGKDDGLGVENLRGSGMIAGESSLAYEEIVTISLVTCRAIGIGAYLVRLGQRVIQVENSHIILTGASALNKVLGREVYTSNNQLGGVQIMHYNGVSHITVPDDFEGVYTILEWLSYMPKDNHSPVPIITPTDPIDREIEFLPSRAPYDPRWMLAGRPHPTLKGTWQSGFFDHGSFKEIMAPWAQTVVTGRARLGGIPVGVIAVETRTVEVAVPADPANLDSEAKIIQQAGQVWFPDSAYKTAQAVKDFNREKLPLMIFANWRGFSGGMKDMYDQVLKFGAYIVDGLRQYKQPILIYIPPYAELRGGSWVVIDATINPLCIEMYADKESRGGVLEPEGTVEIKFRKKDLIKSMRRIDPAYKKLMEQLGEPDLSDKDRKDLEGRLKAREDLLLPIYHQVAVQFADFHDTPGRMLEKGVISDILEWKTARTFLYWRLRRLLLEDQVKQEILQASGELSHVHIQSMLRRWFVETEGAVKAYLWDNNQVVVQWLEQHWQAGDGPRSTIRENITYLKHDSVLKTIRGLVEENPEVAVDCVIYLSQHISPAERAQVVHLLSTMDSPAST
Assay: Inhibition of recombinant human ACC2 assessed as reduction in conversion of acetyl-CoA to malonyl-CoA incubated for 1 to 3 hrs with substrate by MALDI-TOF-MS analysis
Details: not given

IC50	Structure (SMILES)
0.048 µM	CC(=O)N[C@@H](C)/C=C/c1cnc(Oc2ccc(OCC3CC3)cc2Cl)nc1
0.186 µM	CC(=O)N[C@@H](C)/C=C/c1ccc(Oc2ccc(OCCF)cc2Cl)nc1
0.473 µM	CC(=O)N[C@@H](C)/C=C/c1ccc(Oc2cc3sc(C)nc3cc2Cl)nc1
0.0019 µM	CCOc1nc2ccc(Oc3ccc(/C=C/[C@H](C)NC(C)=O)cn3)c(Cl)c2s1

System: not listed separately
Assay: AUC (0 to 24 hrs) in rat at 50 mg/kg/day, po administered for 4 consecutive days measured on day 1
Format: ADME, organism-based
Parameters: dose 50 mg/kg/day, time < 24 hr, route oral
Details: in vivo

AUC(0-t) at 24 h	Structure (SMILES)
620 µg·h/mL	CCOc1nc2ccc(Oc3ccc(/C=C/[C@H](C)NC(C)=O)cn3)c(Cl)c2s1

System: not listed separately
Assay: Cmax in rat at 50 mg/kg/day, po administered for 4 consecutive days measured on day 1
Format: ADME, organism-based
Parameters: dose 50 mg/kg/day, route oral
Details: in vivo

Cmax	Structure (SMILES)
34600 ng/mL	CCOc1nc2ccc(Oc3ccc(/C=C/[C@H](C)NC(C)=O)cn3)c(Cl)c2s1

System: Mus musculus
Assay: Suppression of malonyl-CoA levels in C57BL/6 mouse skeletal muscle at 1 mg/kg, po measured at 6 hrs post dose by LC-MS analysis relative to control
Format: functional
Details: not given

Structure (SMILES)	Activity
CCOc1nc2ccc(Oc3ccc(/C=C/[C@H](C)NC(C)=O)cn3)c(Cl)c2s1	20%

System: not listed separately
Assay: Plasma concentration in C57BL/6 mouse at 2.5 mg/kg, po measured at 6 hrs post dose by LC-MS analysis
Format: ADME, organism-based
Details: not given

concentration at 6 h	Structure (SMILES)
2620 ng/mL	CCOc1nc2ccc(Oc3ccc(/C=C/[C@H](C)NC(C)=O)cn3)c(Cl)c2s1

System: not listed separately
Assay: Metabolic stability in rat liver microsomes assessed as parent compound remaining after 30 mins
Format: ADME, microsome
Details: read-out: Stability

remaining at 0.5 h	Structure (SMILES)
83%	CC(=O)N[C@@H](C)/C=C/c1ccc(Oc2cc3sc(C)nc3cc2Cl)nc1
100%	CCOc1nc2ccc(Oc3ccc(/C=C/[C@H](C)NC(C)=O)cn3)c(Cl)c2s1

Target: Cytochrome P450 2D6 (Homo sapiens, UniProt P10635)
Sequence (P10635 whole entry): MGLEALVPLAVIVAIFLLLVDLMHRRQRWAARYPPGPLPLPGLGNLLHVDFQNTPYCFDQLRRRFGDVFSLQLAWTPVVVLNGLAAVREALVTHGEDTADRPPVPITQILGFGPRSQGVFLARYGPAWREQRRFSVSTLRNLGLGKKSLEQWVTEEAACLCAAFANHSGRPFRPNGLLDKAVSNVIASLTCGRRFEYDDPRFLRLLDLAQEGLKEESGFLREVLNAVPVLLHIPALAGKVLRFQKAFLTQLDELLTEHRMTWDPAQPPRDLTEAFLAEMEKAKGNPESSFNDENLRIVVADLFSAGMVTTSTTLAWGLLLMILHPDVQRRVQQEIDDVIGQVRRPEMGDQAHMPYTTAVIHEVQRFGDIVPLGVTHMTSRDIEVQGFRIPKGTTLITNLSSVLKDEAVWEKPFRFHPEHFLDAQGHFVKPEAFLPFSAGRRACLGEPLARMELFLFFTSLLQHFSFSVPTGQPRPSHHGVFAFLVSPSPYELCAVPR
Assay: Inhibition of CYP2D6 (unknown origin)
Format: ADME
Details: not given

Structure (SMILES)	IC50
CC(=O)N[C@@H](C)/C=C/c1cnc(Oc2ccc(OCC3CC3)cc2Cl)nc1	> 20 µM
CC(=O)N[C@@H](C)/C=C/c1ccc(Oc2cc3sc(C)nc3cc2Cl)nc1	> 20 µM
CCOc1nc2ccc(Oc3ccc(/C=C/[C@H](C)NC(C)=O)cn3)c(Cl)c2s1	> 20 µM

Further lines, results first:

IC50	Structure (SMILES)
> 20 µM	CC(=O)N[C@@H](C)/C=C/c1ccc(Oc2ccc(OCCF)cc2Cl)nc1
> 20 µM	CC(=O)N[C@@H](C)/C=C/c1ccc(Oc2ccc(OCC3CC3)cc2Cl)nc1

Target: T1, Cytochrome P450 1A2 (Homo sapiens, UniProt P05177)
T1 sequence (P05177 whole entry): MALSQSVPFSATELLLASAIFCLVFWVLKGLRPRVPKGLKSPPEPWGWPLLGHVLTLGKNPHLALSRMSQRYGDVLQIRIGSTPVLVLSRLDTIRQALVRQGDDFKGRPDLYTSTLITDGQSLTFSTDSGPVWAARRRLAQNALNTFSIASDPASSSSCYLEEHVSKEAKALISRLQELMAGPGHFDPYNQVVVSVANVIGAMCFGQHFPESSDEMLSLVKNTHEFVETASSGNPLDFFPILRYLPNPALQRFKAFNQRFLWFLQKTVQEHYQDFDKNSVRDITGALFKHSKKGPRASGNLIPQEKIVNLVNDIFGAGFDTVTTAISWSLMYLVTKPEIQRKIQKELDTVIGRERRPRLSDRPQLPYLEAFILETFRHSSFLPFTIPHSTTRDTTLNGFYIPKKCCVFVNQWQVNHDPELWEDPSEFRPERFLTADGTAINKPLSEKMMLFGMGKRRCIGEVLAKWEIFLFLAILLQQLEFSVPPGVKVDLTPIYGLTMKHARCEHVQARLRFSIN
Assay: Inhibition of CYP1A2 (unknown origin)
Format: ADME
Details: not given

Structure (SMILES)	IC50
CC(=O)N[C@@H](C)/C=C/c1cnc(Oc2ccc(OCC3CC3)cc2Cl)nc1	> 20 µM
CC(=O)N[C@@H](C)/C=C/c1ccc(Oc2cc3sc(C)nc3cc2Cl)nc1	> 20 µM
CCOc1nc2ccc(Oc3ccc(/C=C/[C@H](C)NC(C)=O)cn3)c(Cl)c2s1	> 20 µM

The next lines start with the values.

IC50	Structure (SMILES)
> 20 µM	CC(=O)N[C@@H](C)/C=C/c1ccc(Oc2ccc(OCCF)cc2Cl)nc1
> 20 µM	CC(=O)N[C@@H](C)/C=C/c1ccc(Oc2ccc(OCC3CC3)cc2Cl)nc1

System: not listed separately
Assay: AUC in C57BL/6 mouse at 2.5 mg/kg, po
Format: ADME, organism-based
Details: in vivo

AUC	Structure (SMILES)
99.8 µg·h/mL	CCOc1nc2ccc(Oc3ccc(/C=C/[C@H](C)NC(C)=O)cn3)c(Cl)c2s1

System: Rattus norvegicus
Assay: Toxicity in rat assessed as histopathological lesions in heart at 50 mg/kg/day, po administered for 4 consecutive days
Format: organism-based
Details: in vivo

Structure (SMILES)	Activity
CCOc1nc2ccc(Oc3ccc(/C=C/[C@H](C)NC(C)=O)cn3)c(Cl)c2s1	Non-Toxic

Target: Cytochrome P450 2C19 (Homo sapiens, UniProt P33261)
Sequence (P33261 whole entry): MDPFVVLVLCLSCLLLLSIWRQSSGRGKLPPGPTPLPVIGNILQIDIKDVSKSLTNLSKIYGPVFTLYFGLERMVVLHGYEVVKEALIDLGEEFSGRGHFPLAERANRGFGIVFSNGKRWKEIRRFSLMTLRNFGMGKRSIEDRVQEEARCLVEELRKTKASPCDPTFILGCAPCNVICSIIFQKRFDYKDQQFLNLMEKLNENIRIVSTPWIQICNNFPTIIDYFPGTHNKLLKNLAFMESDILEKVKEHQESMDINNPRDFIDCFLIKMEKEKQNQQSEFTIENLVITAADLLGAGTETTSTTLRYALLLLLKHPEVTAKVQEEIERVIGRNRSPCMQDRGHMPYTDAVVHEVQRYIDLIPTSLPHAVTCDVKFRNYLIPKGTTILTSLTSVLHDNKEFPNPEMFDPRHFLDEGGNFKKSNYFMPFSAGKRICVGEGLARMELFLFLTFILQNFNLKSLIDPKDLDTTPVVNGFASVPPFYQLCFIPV
Assay: Inhibition of CYP2C19 (unknown origin)
Format: ADME
Details: not given

Structure (SMILES)	IC50
CC(=O)N[C@@H](C)/C=C/c1cnc(Oc2ccc(OCC3CC3)cc2Cl)nc1	> 20 µM
CC(=O)N[C@@H](C)/C=C/c1ccc(Oc2cc3sc(C)nc3cc2Cl)nc1	> 20 µM
CCOc1nc2ccc(Oc3ccc(/C=C/[C@H](C)NC(C)=O)cn3)c(Cl)c2s1	18 µM

Results, then the compound that gave them:

IC50	Structure (SMILES)
> 20 µM	CC(=O)N[C@@H](C)/C=C/c1ccc(Oc2ccc(OCCF)cc2Cl)nc1
> 20 µM	CC(=O)N[C@@H](C)/C=C/c1ccc(Oc2ccc(OCC3CC3)cc2Cl)nc1

System: not listed separately
Assay: Plasma concentration in C57BL/6 mouse at 1 mg/kg, po measured at 6 hrs post dose by LC-MS analysis
Format: ADME, organism-based
Details: not given

concentration at 6 h	Structure (SMILES)
1130 ng/mL	CCOc1nc2ccc(Oc3ccc(/C=C/[C@H](C)NC(C)=O)cn3)c(Cl)c2s1

Target: Cytochrome P450 2C9 (Homo sapiens, UniProt P11712)
Sequence (P11712 whole entry): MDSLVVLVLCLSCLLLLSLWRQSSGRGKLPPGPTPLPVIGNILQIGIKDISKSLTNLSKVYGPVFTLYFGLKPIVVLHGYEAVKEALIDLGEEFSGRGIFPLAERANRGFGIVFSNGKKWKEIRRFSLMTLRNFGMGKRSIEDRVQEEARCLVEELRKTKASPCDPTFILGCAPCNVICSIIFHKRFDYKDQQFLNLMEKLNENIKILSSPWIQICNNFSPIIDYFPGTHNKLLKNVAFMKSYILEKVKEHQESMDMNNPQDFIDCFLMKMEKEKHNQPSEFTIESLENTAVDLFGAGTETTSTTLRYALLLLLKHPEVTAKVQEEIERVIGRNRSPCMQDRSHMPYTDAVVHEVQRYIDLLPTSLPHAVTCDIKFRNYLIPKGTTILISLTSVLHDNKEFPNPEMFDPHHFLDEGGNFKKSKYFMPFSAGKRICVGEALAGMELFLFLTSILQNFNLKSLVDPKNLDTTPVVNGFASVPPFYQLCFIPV
Assay: Inhibition of CYP2C9 (unknown origin)
Format: ADME
Details: not given

Structure (SMILES)	IC50
CC(=O)N[C@@H](C)/C=C/c1cnc(Oc2ccc(OCC3CC3)cc2Cl)nc1	> 20 µM
CC(=O)N[C@@H](C)/C=C/c1ccc(Oc2cc3sc(C)nc3cc2Cl)nc1	> 20 µM
CCOc1nc2ccc(Oc3ccc(/C=C/[C@H](C)NC(C)=O)cn3)c(Cl)c2s1	13 µM

More lines, now with the values ahead:

IC50	Structure (SMILES)
> 20 µM	CC(=O)N[C@@H](C)/C=C/c1ccc(Oc2ccc(OCCF)cc2Cl)nc1
9.5 µM	CC(=O)N[C@@H](C)/C=C/c1ccc(Oc2ccc(OCC3CC3)cc2Cl)nc1
